# Experimental data reported in US20090137572A1, “2-substituted-4-heteroaryl-pyrimidines useful for the treatment of proliferative disorders” (priority 2004, published 2009).
# Assays:
# Assay type in all cases: biochemical
# CDK1-cyclin B = CDK1-cyclin B (Homo sapiens, UniProt P06493); experiment: Kinase assay (radioactive phosphate incorporation), CDK1-cyclin B; details: read-out: Kinase Inhibition pIC50 CDK1-cyclin B (converted)
# Description: (§1) Kinase assays. The compounds of the invention above were investigated for their ability to inhibit the enzymatic activity of various protein kinases (Table 2). This was achieved by measurement of incorporation of radioactive phosphate from ATP into appropriate polypeptide substrates. Recombinant protein kinases and kinase complexes were produced or obtained commercially. Assays were performed using 96-well plates and appropriate assay buffers (typically 25 mM β-glycerophosphate, 20 mM MOPS, 5 mM EGTA, 1 mM DTT, 1 mM […], pH 7.4), into which were added 2-4 μg of active enzyme with appropriate substrates. The reactions were initiated by addition of Mg/ATP mix (15 mM MgCl2+100 μM ATP with 30-50 kBq per well of [γ-^32P]-ATP) and mixtures incubated as required at 30° C. Reactions were stopped on ice, followed by filtration through p81 filterplates or GF/C filterplates (Whatman Polyfiltronics, Kent, UK). After washing 3 times with 75 mM aq orthophosphoric acid, plates were dried, scintillant added and incorporated radioactivity measured in a scintillation counter (TopCount, Packard Instruments, Pangbourne, Berks, UK). Compounds for kinase assay were made up as 10 mM stocks in DMSO and diluted into 10% DMSO in assay buffer.
# CDK2-cyclin A = CDK2-cyclin A (Homo sapiens, UniProt P24941); experiment: Kinase assay (radioactive phosphate incorporation), CDK2-cyclin A; details: read-out: Kinase Inhibition pIC50 CDK2-cyclin A (converted)
# Description: as §1
# CDK4-cyclin D1 = CDK4-cyclin D1 (Homo sapiens, UniProt P11802); experiment: Kinase assay (radioactive phosphate incorporation), CDK4-cyclin D1; details: read-out: Kinase Inhibition pIC50 CDK4-cyclin D1 (converted)
# Sequence of CDK4-cyclin D1 (P11802 whole entry): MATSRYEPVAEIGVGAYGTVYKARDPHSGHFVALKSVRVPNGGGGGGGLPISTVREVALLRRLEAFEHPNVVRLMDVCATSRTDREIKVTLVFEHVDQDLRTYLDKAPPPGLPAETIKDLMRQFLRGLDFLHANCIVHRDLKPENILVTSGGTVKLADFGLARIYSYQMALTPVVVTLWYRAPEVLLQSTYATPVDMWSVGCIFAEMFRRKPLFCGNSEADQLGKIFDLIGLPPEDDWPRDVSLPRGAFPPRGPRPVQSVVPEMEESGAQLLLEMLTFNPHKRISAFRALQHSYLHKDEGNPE
# Sequence of CDK4-cyclin D1 (P24385 whole entry partner): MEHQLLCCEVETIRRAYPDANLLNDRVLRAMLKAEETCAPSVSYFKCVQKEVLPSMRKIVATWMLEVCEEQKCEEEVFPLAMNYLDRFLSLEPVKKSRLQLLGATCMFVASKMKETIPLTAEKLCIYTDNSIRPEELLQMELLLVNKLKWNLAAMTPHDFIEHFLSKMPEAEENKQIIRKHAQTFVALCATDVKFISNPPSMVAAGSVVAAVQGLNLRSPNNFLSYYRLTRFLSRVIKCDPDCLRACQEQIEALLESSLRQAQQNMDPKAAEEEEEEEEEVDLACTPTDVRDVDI
# Description: as §1
# CDK7/cyclin H = CDK7/cyclin H (Homo sapiens, UniProt P50613); experiment: CDK 7 assay (CTD peptide substrate); details: read-out: Kinase Inhibition pIC50 CDK7-cyclin H (converted)
# Sequence of CDK7/cyclin H (P50613 whole entry): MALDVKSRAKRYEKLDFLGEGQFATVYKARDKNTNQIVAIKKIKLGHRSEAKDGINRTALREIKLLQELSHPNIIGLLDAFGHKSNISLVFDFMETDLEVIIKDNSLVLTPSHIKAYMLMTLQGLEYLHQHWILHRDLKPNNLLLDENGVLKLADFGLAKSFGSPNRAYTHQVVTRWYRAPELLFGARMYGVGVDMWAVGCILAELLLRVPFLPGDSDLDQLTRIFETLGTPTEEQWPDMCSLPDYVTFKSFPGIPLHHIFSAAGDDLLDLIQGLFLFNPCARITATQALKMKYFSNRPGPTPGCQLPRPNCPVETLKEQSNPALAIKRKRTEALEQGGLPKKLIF
# Sequence of CDK7/cyclin H (P51946 whole entry partner): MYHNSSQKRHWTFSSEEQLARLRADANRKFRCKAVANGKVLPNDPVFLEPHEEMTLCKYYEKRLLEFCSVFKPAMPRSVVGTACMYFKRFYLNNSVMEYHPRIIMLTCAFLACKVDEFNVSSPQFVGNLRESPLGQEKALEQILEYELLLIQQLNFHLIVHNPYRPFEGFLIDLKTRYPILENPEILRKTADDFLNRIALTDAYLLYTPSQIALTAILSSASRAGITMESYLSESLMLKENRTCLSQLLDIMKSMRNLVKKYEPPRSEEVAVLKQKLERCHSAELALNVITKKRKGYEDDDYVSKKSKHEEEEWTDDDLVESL
# Procedure, shortened: (§2)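 Radiometric assay: recombinant human CDK9/cyclin T1 or CDK7/cyclin H with biotinylated CTD heptapeptide-repeat substrate, 100 μM ATP with [γ-32P]ATP, 15 mM MgCl2, MOPS pH 7.2, 45 min at 30 °C. Avidin-captured substrate filtered onto P81; 32P incorporation counted by scintillation.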
# CDK9/cyclin T1 = CDK9/cyclin T1 (Homo sapiens, UniProt P50750); experiment: CDK 9 assay (CTD peptide substrate); details: read-out: Kinase Inhibition pIC50 CDK9-cyclin T1 (converted)
# Sequence of CDK9/cyclin T1 (P50750 whole entry): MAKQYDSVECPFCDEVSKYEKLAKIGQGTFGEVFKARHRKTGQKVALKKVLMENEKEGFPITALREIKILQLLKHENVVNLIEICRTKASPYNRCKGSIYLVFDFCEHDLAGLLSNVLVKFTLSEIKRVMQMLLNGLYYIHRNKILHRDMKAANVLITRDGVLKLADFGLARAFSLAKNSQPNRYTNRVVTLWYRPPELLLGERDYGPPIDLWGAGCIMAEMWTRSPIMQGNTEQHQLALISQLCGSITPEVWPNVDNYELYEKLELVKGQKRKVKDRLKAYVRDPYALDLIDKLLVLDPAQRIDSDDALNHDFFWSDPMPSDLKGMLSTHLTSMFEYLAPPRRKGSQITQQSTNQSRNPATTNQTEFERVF
# Sequence of CDK9/cyclin T1 (O60563 whole entry partner): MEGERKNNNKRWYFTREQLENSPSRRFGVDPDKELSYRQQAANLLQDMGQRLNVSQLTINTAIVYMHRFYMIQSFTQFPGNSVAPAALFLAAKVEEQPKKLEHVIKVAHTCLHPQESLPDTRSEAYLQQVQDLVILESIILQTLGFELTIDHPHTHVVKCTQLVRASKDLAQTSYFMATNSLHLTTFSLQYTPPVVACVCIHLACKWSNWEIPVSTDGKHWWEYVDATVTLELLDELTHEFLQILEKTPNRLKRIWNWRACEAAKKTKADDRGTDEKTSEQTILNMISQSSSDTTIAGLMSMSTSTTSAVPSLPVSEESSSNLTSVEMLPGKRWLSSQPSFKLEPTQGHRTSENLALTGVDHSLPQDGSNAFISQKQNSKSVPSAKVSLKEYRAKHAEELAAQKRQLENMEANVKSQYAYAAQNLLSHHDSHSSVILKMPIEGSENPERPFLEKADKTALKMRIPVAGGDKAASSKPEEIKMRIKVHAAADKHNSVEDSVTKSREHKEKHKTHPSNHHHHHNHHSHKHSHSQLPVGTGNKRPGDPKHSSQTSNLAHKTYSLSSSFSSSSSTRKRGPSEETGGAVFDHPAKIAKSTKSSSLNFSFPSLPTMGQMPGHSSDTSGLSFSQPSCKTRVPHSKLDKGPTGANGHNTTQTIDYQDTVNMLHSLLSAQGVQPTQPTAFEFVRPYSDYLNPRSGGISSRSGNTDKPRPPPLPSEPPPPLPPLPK
# Procedure, shortened: as §2
# [1] = biological target: T1, Flt3 (FMS-like tyrosine kinase-3) (Homo sapiens, UniProt P36888); experiment: Kinase assay (radioactive phosphate incorporation), Flt3; details: pIC50 is -log(IC50, M), read-out: Kinase Inhibition pIC50 Flt3 (converted)
# T1 sequence (P36888 27-993): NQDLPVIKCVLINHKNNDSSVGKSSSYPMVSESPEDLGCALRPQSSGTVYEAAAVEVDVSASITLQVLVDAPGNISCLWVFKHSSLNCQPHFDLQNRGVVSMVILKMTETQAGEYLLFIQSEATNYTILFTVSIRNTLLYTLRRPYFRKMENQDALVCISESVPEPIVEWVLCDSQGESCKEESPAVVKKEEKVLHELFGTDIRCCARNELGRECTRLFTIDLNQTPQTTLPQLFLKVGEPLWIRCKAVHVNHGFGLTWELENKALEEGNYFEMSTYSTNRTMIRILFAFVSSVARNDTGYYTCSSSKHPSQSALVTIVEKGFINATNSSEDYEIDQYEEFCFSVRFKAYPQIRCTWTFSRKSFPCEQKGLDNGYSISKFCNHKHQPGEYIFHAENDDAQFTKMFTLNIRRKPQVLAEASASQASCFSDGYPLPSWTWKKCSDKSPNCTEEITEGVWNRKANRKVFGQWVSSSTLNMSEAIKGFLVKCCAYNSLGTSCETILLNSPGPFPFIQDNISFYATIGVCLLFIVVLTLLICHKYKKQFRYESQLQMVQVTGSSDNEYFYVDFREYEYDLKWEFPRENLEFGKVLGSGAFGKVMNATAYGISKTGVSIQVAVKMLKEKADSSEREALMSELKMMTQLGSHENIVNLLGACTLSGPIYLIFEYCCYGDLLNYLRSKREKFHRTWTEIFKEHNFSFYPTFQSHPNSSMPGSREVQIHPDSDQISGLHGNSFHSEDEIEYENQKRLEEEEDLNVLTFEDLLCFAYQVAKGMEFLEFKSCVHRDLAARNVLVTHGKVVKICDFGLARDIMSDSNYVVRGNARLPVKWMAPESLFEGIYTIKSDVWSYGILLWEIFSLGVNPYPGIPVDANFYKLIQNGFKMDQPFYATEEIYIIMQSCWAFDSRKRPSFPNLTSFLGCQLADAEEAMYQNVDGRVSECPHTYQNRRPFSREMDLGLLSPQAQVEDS
# Procedure, shortened: (§3)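 Recombinant kinases (2-4 μg) with polypeptide substrates in pH 7.4 MOPS/β-glycerophosphate buffer. Reactions started with 15 mM MgCl2 + 100 μM ATP containing [γ-32P]-ATP and incubated at 30° C. Filter-bound incorporated radioactivity counted by scintillation; compounds diluted from DMSO stocks into 10% DMSO buffer.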
# CDK2-cycline E = CDK2-cycline E (Homo sapiens, UniProt P24941); experiment: Kinase assay (radioactive phosphate incorporation), CDK2-cyclin E; details: read-out: Kinase Inhibition pIC50 CDK2-cycline E (converted)
# Procedure, shortened: as §3
# Aurora A kinase = biological target: T2, Aurora A kinase (Homo sapiens, UniProt O14965); experiment: Aurora-A (human) kinase assay (Kemptide substrate); details: pIC50 is -log(IC50, M); 15 μM ATP; read-out: Kinase Inhibition pIC50 Aurora A kinase (converted)
# T2 construct: purchased
# T2 sequence (O14965 1-403): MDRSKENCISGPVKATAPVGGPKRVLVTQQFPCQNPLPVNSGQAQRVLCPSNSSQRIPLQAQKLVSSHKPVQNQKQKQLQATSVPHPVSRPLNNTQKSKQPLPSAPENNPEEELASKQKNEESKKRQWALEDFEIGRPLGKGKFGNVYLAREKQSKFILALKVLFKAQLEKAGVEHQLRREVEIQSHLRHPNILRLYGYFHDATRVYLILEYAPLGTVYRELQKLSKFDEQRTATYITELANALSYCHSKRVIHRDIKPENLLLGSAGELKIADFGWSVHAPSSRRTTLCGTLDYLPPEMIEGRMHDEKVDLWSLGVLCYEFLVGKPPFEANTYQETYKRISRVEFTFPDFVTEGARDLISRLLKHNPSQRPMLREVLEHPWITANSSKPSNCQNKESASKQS
# Procedure, shortened: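 Radiometric filter-binding assay: commercial aurora-A kinase (5-10 ng) with 200 μM Kemptide in MOPS/EDTA pH 7.0, started with 10 mM Mg acetate and 15 μM ATP plus [γ-33P]-ATP. Incubated 40 min at room temperature, stopped with phosphoric acid, incorporated 33P counted by scintillation.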
# Sequence of CDK1-cyclin B (P06493 whole entry): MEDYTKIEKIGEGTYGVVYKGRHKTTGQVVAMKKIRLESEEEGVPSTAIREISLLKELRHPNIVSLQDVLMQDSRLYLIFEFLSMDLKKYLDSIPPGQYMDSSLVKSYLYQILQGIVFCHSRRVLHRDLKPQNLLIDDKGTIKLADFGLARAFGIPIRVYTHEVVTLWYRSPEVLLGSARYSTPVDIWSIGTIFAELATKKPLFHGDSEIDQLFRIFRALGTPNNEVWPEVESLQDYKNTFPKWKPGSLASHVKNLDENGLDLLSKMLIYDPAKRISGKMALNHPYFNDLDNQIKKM
# Sequence of CDK1-cyclin B (P14635 whole entry partner): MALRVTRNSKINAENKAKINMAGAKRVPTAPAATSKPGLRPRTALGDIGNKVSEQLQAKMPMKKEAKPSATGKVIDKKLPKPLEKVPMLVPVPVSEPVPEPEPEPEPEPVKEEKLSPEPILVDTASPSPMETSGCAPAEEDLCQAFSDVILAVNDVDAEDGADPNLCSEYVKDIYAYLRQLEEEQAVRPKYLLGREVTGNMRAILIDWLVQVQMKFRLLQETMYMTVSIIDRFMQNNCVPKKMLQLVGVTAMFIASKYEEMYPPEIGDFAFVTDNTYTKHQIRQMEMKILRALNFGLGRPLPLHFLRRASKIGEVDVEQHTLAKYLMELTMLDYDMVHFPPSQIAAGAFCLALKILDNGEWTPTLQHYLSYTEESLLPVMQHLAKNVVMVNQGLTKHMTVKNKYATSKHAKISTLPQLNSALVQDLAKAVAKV
Compound,IC50 (CDK1-cyclin B) [nM],IC50 (CDK2-cyclin A) [nM],IC50 (CDK4-cyclin D1) [nM],IC50 (CDK7/cyclin H) [nM],IC50 (CDK9/cyclin T1) [nM],IC50 [1] [nM],IC50 (CDK2-cycline E) [nM],IC50 (Aurora A kinase) [nM]
"CNc1nc(C)c(-c2ccnc(Nc3cccc(CC(=O)OCCOC)c3)n2)s1 [Compound 44, {3-[4-(4-Methyl-2-methylamino-thiazol-5-yl)-pyrimidin-2-ylamino]-phenyl}-acetic acid 2-methoxy-ethyl ester]",2000,2000,2000,3160,251,63.1,–,–
"CCNc1nc(C)c(-c2ccnc(Nc3cccc(CC(=O)OCCOC)c3)n2)s1 [Compound 45, {3-[4-(2-Ethylamino-4-methyl-thiazol-5-yl)-pyrimidin-2-ylamino]-phenyl}-acetic acid 2-methoxy-ethyl ester]",5010,3160,3160,3980,398,100,2510,15.8
"CCNc1nc(C)c(-c2ccnc(Nc3ccc(S(=O)(=O)NCc4ccccc4)cc3)n2)s1 [Compound 71, N-Benzyl-4-[4-(2-ethylamino-4-methyl-thiazol-5-yl)-pyrimidin-2-ylamino]-benzenesulfonamide]",–,3160,7940,–,398,–,631,–
"Cc1nc(C)c(-c2ccnc(Nc3cccc(CNS(C)(=O)=O)c3)n2)s1 [Compound 49, N-{3-[4-(2,4-Dimethyl-thiazol-5-yl)-pyrimidin-2-ylamino]-benzyl}-methanesulfonamide]",200,158,1000,–,316,200,25.1,5.01
"Cc1nc(N)sc1-c1ccnc(Nc2ccc(N3CCNCC3)cc2)n1 [Compound 61, [4-(2-Amino-4-methyl-thiazol-5-yl)-pyrimidin-2-yl]-(4-piperazin-1-yl-phenyl)-amine]",6310,2000,251,398,158,63.1,398,20
"CNc1nc(C)c(-c2ccnc(Nc3cc(CO)cc(CO)c3)n2)s1 [Compound 48, {3-Hydroxymethyl-5-[4-(4-methyl-2-methylamino-thiazol-5-yl)-pyrimidin-2-ylamino]-phenyl}-methanol]",631,631,631,–,–,63.1,251,50.1
"CCNS(=O)(=O)c1cccc(Nc2nccc(-c3sc(NC)nc3C)n2)c1 [Compound 31, N-Ethyl-3-[4-(4-methyl-2-methylamino-thiazol-5-yl)-pyrimidin-2-ylamino]-benzenesulfonamide]",501,1260,50.1,1000,20,63.1,251,63.1
"CCNc1nc(C)c(-c2ccnc(Nc3ccc(CNC(C)=O)cc3)n2)s1 [Compound 13, N-{4-[4-(2-Ethylamino-4-methyl-thiazol-5-yl)-pyrimidin-2-ylamino]-benzyl}-acetamide]",631,126,63.1,200,25.1,31.6,–,15.8
"CCNc1nc(C)c(-c2ccnc(Nc3ccc(N4CCN(C(C)=O)CC4)cc3)n2)s1 [Compound 58, 1-(4-{4-[4-(2-Ethylamino-4-methyl-thiazol-5-yl)-pyrimidin-2-ylamino]-phenyl}-piperazin-1-yl)-ethanone]",5010,1000,251,–,–,–,631,–

# More lines, now with the values ahead:
IC50 (CDK1-cyclin B) [nM],IC50 (CDK2-cyclin A) [nM],IC50 (CDK4-cyclin D1) [nM],IC50 (CDK7/cyclin H) [nM],IC50 (CDK9/cyclin T1) [nM],IC50 [1] [nM],IC50 (CDK2-cycline E) [nM],IC50 (Aurora A kinase) [nM],Compound
794,1260,–,–,6310,–,158,2510,"CNc1nc(C)c(-c2ccnc(Nc3ccc(S(=O)(=O)NCc4ccccc4)cc3)n2)s1 [Compound 72, N-Benzyl-4-[4-(4-methyl-2-methylamino-thiazol-5-yl)-pyrimidin-2-ylamino]-benzenesulfonamide]"
3160,2510,1000,631,200,12.6,398,200,"CNc1nc(C)c(-c2ccnc(Nc3cccc(N4CCNCC4)c3)n2)s1 [Compound 7, [4-(4-Methyl-2-methylamino-thiazol-5-yl)-pyrimidin-2-yl]-(3-piperazin-1-yl-phenyl)-amine]"
1000,794,200,100,39.8,79.4,100,63.1,"CCNc1nc(C)c(-c2ccnc(Nc3cccc(S(=O)(=O)NC)c3)n2)s1 [Compound 22, 3-[4-(2-Ethylamino-4-methyl-thiazol-5-yl)-pyrimidin-2-ylamino]-N-methyl-benzenesulfonamide]"
6310,3160,158,200,316,39.8,631,50.1,"CCNc1nc(C)c(-c2ccnc(Nc3ccc(N4CCN(Cc5ccccc5)CC4)cc3)n2)s1 [Compound 60, [4-(4-Benzyl-piperazin-1-yl)-phenyl]-[4-(2-ethylamino-4-methyl-thiazol-5-yl)-pyrimidin-2-yl]-amine]"
100,39.8,–,1000,158,–,12.6,316,"Cc1nc(N)sc1-c1ccnc(Nc2ccc(S(=O)(=O)NCc3ccccc3)cc2)n1 [Compound 73, 4-[4-(2-Amino-4-methyl-thiazol-5-yl)-pyrimidin-2-ylamino]-N-benzyl-benzenesulfonamide]"
